From patent publication US20230000808A1, “COMPOSITIONS AND METHODS EXCLUDING OR WITH REDUCED GLUTAMINE FOR THE TREATMENT OF HEMOGLOBINOPATHIES AND THALASSEMIAS” (AXCELLA HEALTH INC., priority 2019, published 2023)

Columns and labels:
TNFα = test: LPS-induced TNF-α secretion in primary human monocyte-derived macrophages (ELISA); assay type: cell-based; details: for TNF-α Measurements Mean: baseline subtracted; for effect on LPS-induced TNF-α secretion: Two Way ANOVA Dunnett
Method: Primary human PMBC derived macrophages were seeded on day 0 at 3.0×10^4 cells per well in 96-well microplates (ThermoFisher) in Dulbecco's Modified Eagle Medium (DMEM) (Gibco) supplemented with penicillin-streptomycin (Hyclone) and 10% heat inactivated fetal bovine serum (HI-FBS) (Atlanta Bio) and incubated overnight at 37° C., 5% CO2. On day 1, cells were washed once with 150 μl per well DPBS (Gibco) and treated with 75 μl of: • a. […] The same medium described above with one amino acid at various concentrations including complete dropout. […] On day 3, the supernatant was collected and immediately frozen in −80° C. freezer. Cells were washed once with 150 μl DPBS and viability was assessed using the WST-8 Cell Proliferation Cytotoxicity Assay (Dojindo). […] Protein levels in supernatant samples were analyzed by ELISA for IL-6 and TNFα using commercially available kits (R&D Systems) according to manufacturer-supplied protocols.

[1] = tested on: RBCs of healthy whole blood; test: RBC deformability (Elongation Index, LORRCA ektacytometry), ex vivo TBHP oxidation of healthy whole blood; assay type: cell-based, human; details: for EI over vehicle control, both ½ EImax and EImax: healthy donor 2, single amino acid treatments
Description: Whole blood from healthy African American and/or Hispanic donors was obtained from Research Blood Components, LLC based on the following donor selection criteria: Adult age (between 18 and 50 years), normal BMI (<30), and absence of other confounding clinical conditions. Whole blood from SCD donors were obtained from BioIVT based on the following donor selection criteria: Patients with genotypes HbSS, HbSC, HbS/β^0 and at least 1-2 months gap since last blood transfusion. Whole blood was shipped on ice on the same day as blood draw. Upon receipt, the blood sample was aliquoted and stored in the refrigerator until used for studies.
RBC deformability measurements were conducted with the Laser Optical Rotational Red Cell Analyzer (LORRCA) from RR Mechatronics in a temperature-controlled environment (37° C.). Briefly, an even layer of RBCs suspended in polyvinylpyrrolidone (PVP) is subjected to shear stress gradient (0.3 to 30 Pa) through two concentric cylinders and the resulting changes in RBC shape or deformability are measured by a laser beam diffraction pattern. The captured images of RBC shape in response to increasing shear stress are then analyzed by the LORRCA program to calculate Elongation Index (EI).
Healthy RBCs have higher deformability ≥0.5 EI and SCD RBCs have lower deformability or EI values as studied by LORRCA ektacytometry in the field. […] The induced hemolysis model in this disclosure involves use of tert-butyl hydroperoxide (TBHP) to lower EI of RBCs.
The ex vivo hemolysis study disclosed here involves overnight treatment of whole blood with vehicle as a control and specific amino acids followed by rapid oxidation (5 min) with TBHP. Method for oxidation of whole blood with tert-butyl hydroperoxide has been used in prior literature (Diederich L, et al, Front Physiol. 2018 May 11; 9:332). RBC deformability or shape changes are then measured with LORRCA ektacytometry.
Whole blood aliquots stored in the fridge were brought up to room temperature while gently shaking on a rocker at low speed for an hour to ensure gradual and uniform suspension of red blood cells prior to deformability measurements. Vehicle control used in the study was 1× Dulbecco's […]) and amino acids disclosed herein were added (at either final 10× or 2.5 mM concentration as indicated) to corresponding vehicle and amino acid treatment conditions. The samples were then incubated overnight at 37° C. The next day, 25 μl of whole blood was taken from each treatment condition and added to 5 mL Elon ISO viscous solution from RR Mechatronics. The sample was inverted 15-20 times to ensure proper mixing of the treated RBCs with the Elon ISO solution followed by loading the sample on LORRCA and capturing RBC deformability or shape measurements over the applied shear gradient. The remaining whole blood treatments were returned to incubator (37° C.) until deformability measurements were completed for all treatments. To the remaining whole blood treatment samples, TBHP solution (5.0-6.0 M in Decane, Sigma) was added at 2.5 mM final concentration from a 100 mM freshly prepared stock and incubated for further 5 min at 37° C. 25 μl of this TBHP-treated sample was immediately removed at the end of the 5 min incubation and added to the Elon ISO solution for RBC deformability measurement after oxidation. Included in the Tables 13-15 are EI measurements at ½ EImax shear stress 1.69 Pa and EImax shear stress 30 Pa from these studies and FIG. 1 captures EI measurements for all shear stress points for the indicated treatment conditions.

sVCAM-1 = test: Soluble VCAM-1 in HLMVEC/TNF-α model (Luminex); assay type: cell-based, human; details: for sVCAM-1 expression relative to TNF Control, Mean % Change: 20×HMDB amino acids, 24 h co-treatment
Method: Cells were incubated at 37° C., 5% CO2 in a humidified incubator. Cells were passaged at least 1-2 times in the complete growth medium every 2-3 days until ready to plate for cell culture studies. Once ready for experiment, HLMVECs were seeded at a density of 6K cells per well of the 96 well optical microplates (Thermofisher) in the complete growth medium described above and the plated cells were incubated for 24 hours at 37° C. in a humidified incubator with 5% CO2. […] The values are published in the Human Metabolome Database (Wishart D S, et al., Nucleic Acids Res. 2007 January; 35:D521-6) which is hereby incorporated by reference in its entirety. The medium was also supplemented with growth factors & antibiotics from EGM2-MV kit (Lonza) except the kit-provided FBS which was substituted with dialyzed FBS (Hyclone). […]). […] were run in duplicate and data was normalized to corresponding TNF-α control for respective treatments as specified in the tables. Mean percent change in level of adhesion markers are reported herein. Statistical analysis was done using two sample t-test.

NC(=O)CC[C@H](N)C(=O)O [Glutamine, L-glutamine]
TNF-α Measurements Mean (TNFα; Donor 1, Conc. 749 μM (baseline), LPS): 0
TNF-α Measurements Mean (TNFα; Donor 1, Conc. 3747 μM, LPS): −45.7
TNF-α Measurements Mean (TNFα; Donor 1, Conc. 11242 μM, LPS): −65.24
TNF-α Measurements Mean (TNFα; Donor 1, Conc. 22484 μM, LPS): −103.07
TNF-α Measurements Mean (TNFα; Donor 2, Conc. 749 μM (baseline), LPS): −9.5E−15
TNF-α Measurements Mean (TNFα; Donor 2, Conc. 3747 μM, LPS): 9.338
TNF-α Measurements Mean (TNFα; Donor 2, Conc. 11242 μM, LPS): 20.04
TNF-α Measurements Mean (TNFα; Donor 2, Conc. 22484 μM, LPS): 11.5
effect on LPS-induced TNF-α secretion (TNFα; Donor 2): increased
TNF-α Measurements Mean (TNFα; Donor 3, Conc. 749 μM (baseline), LPS): 0
TNF-α Measurements Mean (TNFα; Donor 3, Conc. 3747 μM, LPS): 1.936
TNF-α Measurements Mean (TNFα; Donor 3, Conc. 11242 μM, LPS): 18
TNF-α Measurements Mean (TNFα; Donor 3, Conc. 22484 μM, LPS): 29.14
effect on LPS-induced TNF-α secretion (TNFα; Donor 3): increased
effectiveness among all treatment groups, EI and fold change relative to vehicle ([1]; healthy donor 2): least effective
EI over vehicle control, both ½ EImax and EImax [1]: higher than the vehicle
sVCAM-1 expression relative to TNF Control, Mean % Change (sVCAM-1; TNF Conc 0.5 ng/mL): 566.0015%
sVCAM-1 expression relative to TNF Control, Mean % Change (sVCAM-1; TNF Conc 25 ng/mL): 755.2941%
increase in sVCAM-1 level relative to control (sVCAM-1; both TNF-α groups): > 570%

CC(=O)N[C@@H](CS)C(=O)O [N-Acetyl Cysteine, N-acetylcysteine]
TNF-α Measurements Mean (TNFα; Donor 1, Conc. 5 X, LPS 0.15 ng/mL): −326.24
TNF-α Measurements Mean (TNFα; Donor 1, Conc. 10 X, LPS 0.15 ng/mL): −446.88
TNF-α Measurements Mean (TNFα; Donor 1, Conc. 20 X, LPS 0.15 ng/mL): −561.33
TNF-α Measurements Mean (TNFα; Donor 1, Conc. 40 X, LPS 0.15 ng/mL): −644.49
effect on LPS-induced TNF-α secretion (TNFα; Donor 1): significantly reduced
TNF-α Measurements Mean (TNFα; Donor 2, Conc. 5 X, LPS 0.15 ng/mL): −54.1596
TNF-α Measurements Mean (TNFα; Donor 2, Conc. 10 X, LPS 0.15 ng/mL): −70.8382
TNF-α Measurements Mean (TNFα; Donor 2, Conc. 20 X, LPS 0.15 ng/mL): −88.6528
TNF-α Measurements Mean (TNFα; Donor 2, Conc. 40 X, LPS 0.15 ng/mL): −103.984
effect on LPS-induced TNF-α secretion (TNFα; Donor 2): significantly reduced
TNF-α Measurements Mean (TNFα; Donor 3, Conc. 5 X, LPS 0.15 ng/mL): −33.6246
TNF-α Measurements Mean (TNFα; Donor 3, Conc. 10 X, LPS 0.15 ng/mL): −41.7266
TNF-α Measurements Mean (TNFα; Donor 3, Conc. 20 X, LPS 0.15 ng/mL): −48.4373
TNF-α Measurements Mean (TNFα; Donor 3, Conc. 40 X, LPS 0.15 ng/mL): −55.3093
effect on LPS-induced TNF-α secretion (TNFα; Donor 3): significantly reduced
EI over vehicle control, both ½ EImax and EImax [1]: higher than the vehicle
